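Assay format: 96-well plates, 48-hour exposure. Abbreviation: GI50, concentration required for 50% inhibition of growth. Definition used: TGI = concentration required for complete inhibition of growth.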
Experiments:
Assay in all cases: inhibition of tumour cell growth, NCI panel, 48 h; in the data active = GI50 below about 0.43 µM; inactive = the rest
SR leukemia = test system: SR leukemia
SK-MEL-28 melanoma = test system: SK-MEL-28 melanoma
A549 NSCLC = test system: A549 NSCLC
UACC-62 melanoma = test system: UACC-62 melanoma
KM12 colon = test system: KM12 colon
MALME-3M melanoma = test system: MALME-3M melanoma
HS 578T breast = test system: HS 578T breast
NCI-H23 lung = test system: NCI-H23 lung
MDA-MB-435 = test system: MDA-MB-435
UACC-257 melanoma = test system: UACC-257 melanoma
SW-620 colon = test system: SW-620 colon
HL-60(TB) leukemia = test system: HL-60(TB) leukemia
NCI-H460 lung = test system: NCI-H460 lung
IGROV1 ovarian = test system: IGROV1 ovarian
ACHN renal = test system: ACHN renal
SK-MEL-5 melanoma = test system: SK-MEL-5 melanoma
SK-MEL-2 melanoma = test system: SK-MEL-2 melanoma
COLO 205 colon = test system: COLO 205 colon
SF-295 CNS = test system: SF-295 CNS
TK-10 renal = test system: TK-10 renal
786-0 renal = test system: 786-0 renal
HOP-62 NSCLC = test system: HOP-62 NSCLC
EKVX NSCLC = test system: EKVX NSCLC
SK-OV-3 ovarian = test system: SK-OV-3 ovarian
SN12C renal = test system: SN12C renal
PC-3 prostate = test system: PC-3 prostate
HT29 colon = test system: HT29 colon
OVCAR-4 ovarian = test system: OVCAR-4 ovarian
LOX IMVI melanoma = test system: LOX IMVI melanoma
OVCAR-8 ovarian = test system: OVCAR-8 ovarian
BT-549 breast = test system: BT-549 breast
SF-268 CNS = test system: SF-268 CNS
M14 melanoma = test system: M14 melanoma
MDA-MB-231 breast = test system: MDA-MB-231 breast
MCF7 breast = test system: MCF7 breast
U251 CNS = test system: U251 CNS
OVCAR-3 ovarian = test system: OVCAR-3 ovarian
NCI-H522 lung = test system: NCI-H522 lung
CAKI-1 renal = test system: CAKI-1 renal
HCT-15 colon = test system: HCT-15 colon
SF-539 CNS = test system: SF-539 CNS
T-47D breast = test system: T-47D breast
UO-31 renal = test system: UO-31 renal
RPMI-8226 leukemia = test system: RPMI-8226 leukemia
HOP-92 NSCLC = test system: HOP-92 NSCLC
HCC-2998 colon = test system: HCC-2998 colon
NCI/ADR-RES ovarian = test system: NCI/ADR-RES ovarian
A498 renal = test system: A498 renal
DU-145 prostate = test system: DU-145 prostate
CCRF-CEM leukemia = test system: CCRF-CEM leukemia
SNB-19 CNS = test system: SNB-19 CNS
NCI-H226 lung = test system: NCI-H226 lung
OVCAR-5 ovarian = test system: OVCAR-5 ovarian
K-562 leukemia = test system: K-562 leukemia
SNB-75 CNS = test system: SNB-75 CNS
MOLT-4 leukemia = test system: MOLT-4 leukemia
HCT-116 colon = test system: HCT-116 colon

COc1cc(O)c2c3c(ccnc13)-c1ccccc1N2
51.3 µM: TGI (EKVX NSCLC)
72.8 µM: TGI (SK-MEL-28 melanoma)
71.9 µM: TGI (MDA-MB-231 breast)
47.4 µM: TGI (CAKI-1 renal)
49.2 µM: TGI (SNB-19 CNS)
60.2 µM: TGI (BT-549 breast)
5.96 µM: TGI (OVCAR-3 ovarian)
3.66 µM: TGI (MDA-MB-435)
10.8 µM: TGI (SF-539 CNS)
17.1 µM: TGI (UACC-62 melanoma)
46.5 µM: TGI (MALME-3M melanoma)
42.2 µM: TGI (A498 renal)
91.9 µM: TGI (NCI-H226 lung)
20 µM: TGI (SN12C renal)
35.7 µM: TGI (DU-145 prostate)
31.7 µM: TGI (LOX IMVI melanoma)
92.7 µM: TGI (NCI/ADR-RES ovarian)
12.3 µM: TGI (HCC-2998 colon)
79.6 µM: TGI (U251 CNS)
inactive: GI50 (SR leukemia) 0.488 µM | GI50 (SK-MEL-28 melanoma) 21.1 µM | GI50 (A549 NSCLC) 2.37 µM | GI50 (UACC-62 melanoma) 4.33 µM | GI50 (KM12 colon) 5.06 µM | GI50 (MALME-3M melanoma) 14.9 µM | GI50 (HS 578T breast) 15.5 µM | GI50 (NCI-H23 lung) 20.5 µM | GI50 (MDA-MB-435) 1.9 µM | GI50 (UACC-257 melanoma) 5.71 µM | GI50 (SW-620 colon) 2.63 µM | GI50 (HL-60(TB) leukemia) 21.8 µM | GI50 (NCI-H460 lung) 2.69 µM | GI50 (IGROV1 ovarian) 10.8 µM | GI50 (ACHN renal) 3.02 µM | GI50 (SK-MEL-5 melanoma) 2.73 µM | GI50 (SK-MEL-2 melanoma) 21.8 µM | GI50 (COLO 205 colon) 6.23 µM | GI50 (SF-295 CNS) 5.9 µM | GI50 (TK-10 renal) 33.2 µM | GI50 (786-0 renal) 12.3 µM | GI50 (HOP-62 NSCLC) 10.4 µM | GI50 (EKVX NSCLC) 14.9 µM | GI50 (SK-OV-3 ovarian) 28.5 µM | GI50 (SN12C renal) 5.42 µM | GI50 (PC-3 prostate) 5.61 µM | GI50 (HT29 colon) 5.11 µM | GI50 (OVCAR-4 ovarian) 2.85 µM | GI50 (LOX IMVI melanoma) 3.2 µM | GI50 (OVCAR-8 ovarian) 4.87 µM | GI50 (BT-549 breast) 15.4 µM | GI50 (SF-268 CNS) 8.63 µM | GI50 (M14 melanoma) 1.69 µM | GI50 (MDA-MB-231 breast) 5.19 µM | GI50 (MCF7 breast) 2.01 µM | GI50 (U251 CNS) 6.07 µM | GI50 (OVCAR-3 ovarian) 2.01 µM | GI50 (NCI-H522 lung) 9.34 µM | GI50 (CAKI-1 renal) 12.8 µM | GI50 (HCT-15 colon) 2.35 µM | GI50 (SF-539 CNS) 3.33 µM | GI50 (T-47D breast) 8.32 µM | GI50 (UO-31 renal) 18.8 µM | GI50 (RPMI-8226 leukemia) 3.93 µM | GI50 (HOP-92 NSCLC) 24.7 µM | GI50 (HCC-2998 colon) 4.39 µM | GI50 (NCI/ADR-RES ovarian) 9.25 µM | GI50 (A498 renal) 22.4 µM | GI50 (DU-145 prostate) 2.77 µM | GI50 (CCRF-CEM leukemia) 7.36 µM | GI50 (SNB-19 CNS) 4.86 µM | GI50 (NCI-H226 lung) 18.6 µM | GI50 (OVCAR-5 ovarian) 25.3 µM | GI50 (K-562 leukemia) 28.1 µM | GI50 (SNB-75 CNS) 17 µM | GI50 (MOLT-4 leukemia) 21.2 µM | GI50 (HCT-116 colon) 2.4 µM
98.9 µM: TGI (SF-268 CNS)
61.5 µM: TGI (SK-MEL-2 melanoma)
60 µM: TGI (NCI-H522 lung)
7.95 µM: TGI (M14 melanoma)
8.59 µM: TGI (MCF7 breast)
53.7 µM: TGI (SF-295 CNS)
77.9 µM: TGI (ACHN renal)
85.9 µM: TGI (TK-10 renal)
29.1 µM: TGI (HCT-15 colon)
25.1 µM: TGI (OVCAR-4 ovarian)
12.5 µM: TGI (SK-MEL-5 melanoma)
64.5 µM: TGI (KM12 colon)
> 100 µM: TGI (SR leukemia) | TGI (A549 NSCLC) | TGI (NCI-H23 lung) | TGI (UACC-257 melanoma) | TGI (SW-620 colon) | TGI (HL-60(TB) leukemia) | TGI (NCI-H460 lung) | TGI (IGROV1 ovarian) | TGI (COLO 205 colon) | TGI (786-0 renal) | TGI (HOP-62 NSCLC) | TGI (SK-OV-3 ovarian) | TGI (PC-3 prostate) | TGI (HT29 colon) | TGI (OVCAR-8 ovarian) | TGI (T-47D breast) | TGI (UO-31 renal) | TGI (RPMI-8226 leukemia) | TGI (HOP-92 NSCLC) | TGI (CCRF-CEM leukemia) | TGI (OVCAR-5 ovarian) | TGI (K-562 leukemia) | TGI (SNB-75 CNS) | TGI (MOLT-4 leukemia) | TGI (HCT-116 colon)
92.8 µM: TGI (HS 578T breast)

Source: PubChem BioAssay (NCI)
